This note sets out measurements from the supplement of paper PMC10307832.

Common to all, as to experiment: relative viability (nuclei count vs DMSO), 5 days (fraction); higher = more cells survive
Compound in the experiment “KN-93 + Foretinib”: CN(C/C=C/C1=CC=C(C=C1)Cl)CC2=CC=CC=C2N(CCO)S(=O)(=O)C3=CC=C(C=C3)OC [KN-93] + COc1cc2c(Oc3ccc(NC(=O)C4(C(=O)Nc5ccc(F)cc5)CC4)cc3F)ccnc2cc1OCCCN1CCOCC1 [Foretinib] (partner 0.25 µM)
The gist of the method: (§1)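 Relative viability is defined as nuclei in treated wells over nuclei in vehicle wells. Duplicate plates were run and medians reported. Lung cancer cell lines in 1536-well plates were dosed by pin tool one day after seeding, with one drug or with a fixed anchor-drug dose plus five library-drug doses (not always all listed) in √10 steps, and nuclei were counted after 5 days.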

Compound in the experiment “KN-93 + Tozasertib”: CN(C/C=C/C1=CC=C(C=C1)Cl)CC2=CC=CC=C2N(CCO)S(=O)(=O)C3=CC=C(C=C3)OC [KN-93] + Cc1cc(Nc2cc(N3CCN(C)CC3)nc(Sc3ccc(NC(=O)C4CC4)cc3)n2)n[nH]1 [Tozasertib] (partner 0.1 µM)
The gist of the method:
as §1

Compound in the experiment “KN-93 + Pemetrexed”: CN(C/C=C/C1=CC=C(C=C1)Cl)CC2=CC=CC=C2N(CCO)S(=O)(=O)C3=CC=C(C=C3)OC [KN-93] + Nc1nc2[nH]cc(CCc3ccc(C(=O)N[C@@H](CCC(=O)O)C(=O)O)cc3)c2c(=O)[nH]1 [Pemetrexed] (partner 0.2 µM)
An outline of the steps: as §1

Compound in the experiment “KN-93 + Navitoclax”: CN(C/C=C/C1=CC=C(C=C1)Cl)CC2=CC=CC=C2N(CCO)S(=O)(=O)C3=CC=C(C=C3)OC [KN-93] + CC1(C)CCC(c2ccc(Cl)cc2)=C(CN2CCN(c3ccc(C(=O)NS(=O)(=O)c4ccc(N[C@H](CCN5CCOCC5)CSc5ccccc5)c(S(=O)(=O)C(F)(F)F)c4)cc3)CC2)C1 [Navitoclax] (partner 0.5 µM)
The gist of the method: as §1

Compound in the experiment “KN-93 + OSI-027”: CN(C/C=C/C1=CC=C(C=C1)Cl)CC2=CC=CC=C2N(CCO)S(=O)(=O)C3=CC=C(C=C3)OC [KN-93] + COc1cccc2cc(-c3nc([C@H]4CC[C@H](C(=O)O)CC4)n4ncnc(N)c34)[nH]c12 [OSI-027] (partner 0.5 µM)
The gist of the method: as §1

As for NCI-H1734, the relative viability with KN-93 + Foretinib (first compound 0.08 µM) stood at 0.72; in the experiment with KN-93 + Foretinib (first compound 0.253 µM), 0.847; with KN-93 + Foretinib (first compound 2.53 µM), 0.734; with KN-93 + Foretinib (first compound 8 µM), 0.585; with KN-93 + Tozasertib (first compound 0.08 µM), 0.254; in the experiment with KN-93 + Tozasertib (first compound 0.253 µM) it was 0.27. For the same cell line, the relative viability with KN-93 + Tozasertib (first compound 2.53 µM) amounted to 0.264; in the experiment with KN-93 + Tozasertib (first compound 8 µM), 0.215; in the experiment with KN-93 + Pemetrexed (first compound 0.08 µM), 0.457; with KN-93 + Pemetrexed (first compound 0.253 µM), 0.478; with KN-93 + Pemetrexed (first compound 2.53 µM), 0.399; with KN-93 + Pemetrexed (first compound 8 µM), 0.417. The relative viability with KN-93 + Navitoclax (first compound 0.08 µM) turned out to be 0.649; with KN-93 + Navitoclax (first compound 0.253 µM), 0.964; in the experiment with KN-93 + Navitoclax (first compound 2.53 µM) it was 0.816; in the experiment with KN-93 + Navitoclax (first compound 8 µM), 0.622; with KN-93 + OSI-027 (first compound 0.08 µM), 0.53; in the experiment with KN-93 + OSI-027 (first compound 0.253 µM), 0.574. Further, the relative viability came out at 0.605 with KN-93 + OSI-027 (first compound 2.53 µM) and 0.404 in the experiment with KN-93 + OSI-027 (first compound 8 µM).
Regarding NCI-H1755, the relative viability with KN-93 + Foretinib (first compound 0.08 µM) is 0.993; in the experiment with KN-93 + Foretinib (first compound 0.253 µM), 0.924; with KN-93 + Foretinib (first compound 2.53 µM), 0.921; with KN-93 + Foretinib (first compound 8 µM), 0.794; in the experiment with KN-93 + Tozasertib (first compound 0.08 µM), 0.625; in the experiment with KN-93 + Tozasertib (first compound 0.253 µM), 0.604. Moreover, the relative viability is 0.584 with KN-93 + Tozasertib (first compound 2.53 µM); 0.468 with KN-93 + Tozasertib (first compound 8 µM); 0.455 with KN-93 + Pemetrexed (first compound 0.08 µM); 0.432 with KN-93 + Pemetrexed (first compound 0.253 µM); 0.453 with KN-93 + Pemetrexed (first compound 2.53 µM); 0.44 in the experiment with KN-93 + Pemetrexed (first compound 8 µM). For the same cell line, the relative viability in the experiment with KN-93 + Navitoclax (first compound 0.08 µM) came to 0.844; in the experiment with KN-93 + Navitoclax (first compound 0.253 µM) it was 1.03; in the experiment with KN-93 + Navitoclax (first compound 2.53 µM) it was 1.07; in the experiment with KN-93 + Navitoclax (first compound 8 µM) it was 0.815; with KN-93 + OSI-027 (first compound 0.08 µM), 0.832; with KN-93 + OSI-027 (first compound 0.253 µM), 0.727. For the same cell line, the relative viability with KN-93 + OSI-027 (first compound 2.53 µM) came out at 0.776; with KN-93 + OSI-027 (first compound 8 µM) it was 0.559.
As to NCI-H1793, the relative viability in the experiment with KN-93 + Foretinib (first compound 0.08 µM) came to 0.729; with KN-93 + Foretinib (first compound 0.253 µM), 0.799; with KN-93 + Foretinib (first compound 2.53 µM) it was 0.642; in the experiment with KN-93 + Foretinib (first compound 8 µM), 0.287; with KN-93 + Tozasertib (first compound 0.08 µM), 0.305; in the experiment with KN-93 + Tozasertib (first compound 0.253 µM), 0.23. Besides, the relative viability in the experiment with KN-93 + Tozasertib (first compound 2.53 µM) amounted to 0.315; with KN-93 + Tozasertib (first compound 8 µM), 0.258; in the experiment with KN-93 + Pemetrexed (first compound 0.08 µM), 0.97; with KN-93 + Pemetrexed (first compound 0.253 µM), 0.899; with KN-93 + Pemetrexed (first compound 2.53 µM), 1.1; with KN-93 + Pemetrexed (first compound 8 µM) it was 0.528. The relative viability was found to be 0.398 with KN-93 + Navitoclax (first compound 0.253 µM); 0.385 with KN-93 + Navitoclax (first compound 2.53 µM); 0.244 with KN-93 + Navitoclax (first compound 8 µM); 0.242 in the experiment with KN-93 + OSI-027 (first compound 0.08 µM); 0.245 in the experiment with KN-93 + OSI-027 (first compound 0.253 µM); 0.261 with KN-93 + OSI-027 (first compound 2.53 µM). Further, the relative viability with KN-93 + OSI-027 (first compound 8 µM) is 0.152.
For NCI-H1915, the relative viability was 0.952 with KN-93 + Foretinib (first compound 0.08 µM); 1.23 with KN-93 + Foretinib (first compound 0.253 µM); 1.25 with KN-93 + Foretinib (first compound 2.53 µM); 0.912 in the experiment with KN-93 + Foretinib (first compound 8 µM); 0.388 with KN-93 + Tozasertib (first compound 0.08 µM); 0.446 with KN-93 + Tozasertib (first compound 0.253 µM). Besides, the relative viability with KN-93 + Tozasertib (first compound 2.53 µM) was found to be 0.413; with KN-93 + Tozasertib (first compound 8 µM) it was 0.308; with KN-93 + Pemetrexed (first compound 0.08 µM) it was 0.471; with KN-93 + Pemetrexed (first compound 0.253 µM), 0.601; in the experiment with KN-93 + Pemetrexed (first compound 2.53 µM) it was 0.515; with KN-93 + Pemetrexed (first compound 8 µM), 0.506. Besides, the relative viability in the experiment with KN-93 + Navitoclax (first compound 0.08 µM) came out at 0.736; with KN-93 + Navitoclax (first compound 0.253 µM), 0.813; with KN-93 + Navitoclax (first compound 2.53 µM), 0.823; in the experiment with KN-93 + Navitoclax (first compound 8 µM), 0.742; in the experiment with KN-93 + OSI-027 (first compound 0.08 µM) it was 0.571; in the experiment with KN-93 + OSI-027 (first compound 0.253 µM), 0.718. For the same cell line, the results for the relative viability with KN-93 + OSI-027 (first compound 2.53 µM) and with KN-93 + OSI-027 (first compound 8 µM) were 0.653 and 0.472, respectively.
As for NCI-H1944, the relative viability came to 0.831 with KN-93 + Foretinib (first compound 0.08 µM); 0.835 in the experiment with KN-93 + Foretinib (first compound 0.253 µM); 0.709 with KN-93 + Foretinib (first compound 2.53 µM); 0.557 with KN-93 + Foretinib (first compound 8 µM); 0.269 in the experiment with KN-93 + Tozasertib (first compound 0.08 µM); 0.221 in the experiment with KN-93 + Tozasertib (first compound 0.253 µM). In addition, the relative viability with KN-93 + Tozasertib (first compound 2.53 µM) worked out at 0.257; in the experiment with KN-93 + Tozasertib (first compound 8 µM), 0.218; with KN-93 + Pemetrexed (first compound 0.08 µM), 0.599; with KN-93 + Pemetrexed (first compound 0.253 µM), 0.598; with KN-93 + Pemetrexed (first compound 2.53 µM), 0.545; in the experiment with KN-93 + Pemetrexed (first compound 8 µM), 0.57. The relative viability with KN-93 + Navitoclax (first compound 0.08 µM) turned out to be 1.09; with KN-93 + Navitoclax (first compound 0.253 µM), 1.01; with KN-93 + Navitoclax (first compound 2.53 µM) it was 1.04; with KN-93 + Navitoclax (first compound 8 µM) it was 0.896; with KN-93 + OSI-027 (first compound 0.08 µM), 0.403; in the experiment with KN-93 + OSI-027 (first compound 0.253 µM), 0.376. The figures for the relative viability with KN-93 + OSI-027 (first compound 2.53 µM) and with KN-93 + OSI-027 (first compound 8 µM) were 0.383 and 0.31, respectively.
With NCI-H1975, the relative viability in the experiment with KN-93 + Foretinib (first compound 0.08 µM) was 0.848; in the experiment with KN-93 + Foretinib (first compound 0.253 µM) it was 1.11; with KN-93 + Foretinib (first compound 2.53 µM), 0.972; with KN-93 + Foretinib (first compound 8 µM) it was 0.475; with KN-93 + Tozasertib (first compound 0.08 µM), 0.702; with KN-93 + Tozasertib (first compound 0.253 µM) it was 0.849. Besides, the relative viability stood at 0.676 in the experiment with KN-93 + Tozasertib (first compound 2.53 µM); 0.146 with KN-93 + Tozasertib (first compound 8 µM); 0.277 with KN-93 + Pemetrexed (first compound 0.08 µM); 0.299 in the experiment with KN-93 + Pemetrexed (first compound 0.253 µM); 0.309 with KN-93 + Pemetrexed (first compound 2.53 µM); 0.221 with KN-93 + Pemetrexed (first compound 8 µM). For the same cell line, the relative viability with KN-93 + Navitoclax (first compound 0.08 µM) came out at 0.797; with KN-93 + Navitoclax (first compound 0.253 µM), 1.36; with KN-93 + Navitoclax (first compound 2.53 µM), 1.26; in the experiment with KN-93 + Navitoclax (first compound 8 µM), 0.756; with KN-93 + OSI-027 (first compound 0.08 µM), 0.674; in the experiment with KN-93 + OSI-027 (first compound 0.253 µM), 0.731. Also, the values for the relative viability in the experiment with KN-93 + OSI-027 (first compound 2.53 µM) and with KN-93 + OSI-027 (first compound 8 µM) were 0.677 and 0.417, respectively.
Regarding NCI-H1993, the relative viability was found to be 0.774 in the experiment with KN-93 + Foretinib (first compound 0.08 µM); 0.78 in the experiment with KN-93 + Foretinib (first compound 0.253 µM); 0.808 with KN-93 + Foretinib (first compound 2.53 µM); 0.672 with KN-93 + Foretinib (first compound 8 µM); 0.563 with KN-93 + Tozasertib (first compound 0.08 µM); 0.552 in the experiment with KN-93 + Tozasertib (first compound 0.253 µM). For the same cell line, the relative viability came to 0.593 with KN-93 + Tozasertib (first compound 2.53 µM); 0.519 with KN-93 + Tozasertib (first compound 8 µM); 0.474 in the experiment with KN-93 + Pemetrexed (first compound 0.08 µM); 0.535 with KN-93 + Pemetrexed (first compound 0.253 µM); 0.618 in the experiment with KN-93 + Pemetrexed (first compound 2.53 µM); 0.58 with KN-93 + Pemetrexed (first compound 8 µM). The relative viability in the experiment with KN-93 + Navitoclax (first compound 0.08 µM) worked out at 0.939; with KN-93 + Navitoclax (first compound 0.253 µM), 0.71; with KN-93 + Navitoclax (first compound 2.53 µM), 0.861; in the experiment with KN-93 + Navitoclax (first compound 8 µM), 0.632; with KN-93 + OSI-027 (first compound 0.08 µM), 0.544; in the experiment with KN-93 + OSI-027 (first compound 0.253 µM), 0.607. In addition, the relative viability came out at 0.565 in the experiment with KN-93 + OSI-027 (first compound 2.53 µM) and 0.573 in the experiment with KN-93 + OSI-027 (first compound 8 µM).
